In patent US10766927B2, “Peptides that stimulate subcutaneous adipogenesis” (THE REGENTS OF THE UNIVERSITY OF CALIFORNIA, priority 2012, dated 2020):

Columns and labels:
[1] = system: Pre-adipocyte stem cells including bone marrow mesenchymal stem cells and fibroblasts; experiment: Assay 1 to measure adipogenesis (IBMX/dexamethasone initiation, Oil Red O or BODIPY staining); type: cell-based, rat; settings: for adipogenic effect compared to KSEVSK 6-mer: assay 1 (FIG. 11); for Fold adipogenic induction vs. negative control / Specific activity (activity/1000 daltons): Assay 1
Description: Reagents: (1) 3-isobutyl-1-methylxanthine (IBMX) solution: 0.5M in DMSO; (2) Insulin solution: 10 mg/mL recombinant human insulin; (3) Dexamethasone solution in 10 mM in ethanol; (4) Oil Red 0 (0.36% in 60% isopropanol) or BODIPY dye (BODIPY 493/503 (4,4-difluoro-1,3,5,7-tetramethyl-4-bora-3a,4a-diaza-s-indacene-8-propionic acid, succinimidyl ester) from Invitrogen at 4-10 μM).
Adipogenesis Initiation Media: mesenchymal stem cell expansion media/0.5 mM IBMX/1 μM dexamethasone. Mesenchymal stem cell expansion media is commercially available from Millipore. The IBMX Solution was diluted 1:1000 and the Dexamethasone Solution was diluted 1:10,000 in expansion media containing antibiotics and antimycotics. The prepared media was stored at 4° C.
Adipogenesis Progression Media for positive control: mesenchymal stem cell expansion media/10 μg/mL insulin. The Insulin Solution was diluted 1:1000 in the expansion media and stored at 4° C.
Experimental Adipogenesis Progression Media: mesenchymal stem cell expansion media/1-100 μg/mL RHAMM antagonist peptides.
Adipogenesis Maintenance Media: mesenchymal stem cell expansion media containing antibiotics and antimycotics.
Negative Control Media: DMEM/10% normal calf serum.
(§1) Pre-adipocyte stem cells including bone marrow mesenchymal stem cells and fibroblasts including reticular and papillary dermal fibroblasts were propagated using standard tissue culture methods. Cells were trypsinized to remove the cells from the substratum. The trypsin was neutralized and cells were counted using a hemocytometer. Cells were resuspended at 30,000 cells/mL in expansion media. […] of cell suspension was plated per well of 24-well plate, with several wells left empty for blank well staining.
Cells were incubated for 1-2 days until they reached confluency. Approximately 1.8 mL of media was removed from each well and replaced with 2 mL Adipogenesis Initiation Media. For negative control wells, expansion media only was used at this step and for subsequent media changes. For all media changes, media was replaced as gently as possible to avoid disturbing the monolayer.
Cells were incubated for 48 hours at 37° C., 5% CO2. 2 mL media was removed from each well, and replaced with 2 mL either positive control or experimental Adipogenesis Progression Media per well. Cells were again incubated for 48 hours at 37° C., 5% CO2. 2 mL of media was removed from each well and replaced with 2 mL Adipogenesis Maintenance Media per well. In addition, media was added to the empty wells reserved for blank well staining Cells were incubated for at least 48 hours at 37° C., 5% CO2. Media was replaced every 48-72 hours. Accumulation of intracellular lipid droplets continued for at least 5 days.
For quantification of Oil Red 0 staining, media was removed and cells were washed twice with PBS, using care to gently add the PBS. 0.5 mL Oil Red 0 solution was added per well of 24-well plate, including to the wells lacking cells, but containing media. Cells were incubated for 15 minutes at room temperature. The staining solution was then removed and wells were washed three times with 1 mL of phosphate buffered saline (PBS). In some experiments, following removal of the last wash, stained plates were scanned or photographed.
Adipogenesis was quantified using a spectrophotometer or fluorometer. 0.25 mL Dye Extraction Solution (isopropyl alcohol) was added per well, and the plate was set on an orbital shaker or platform rocker for 15-30 minutes. Extracted dye was transferred into a cuvette and absorbance was read in a spectrophotometer at visible range for oil red 0 or transferred to a 96-well plate and quantified in a plate reader.
For quantification of BODIPY dye uptake, media was removed and cells were washed twice with PBS, using care to gently add the PBS. Cells were then fixed in 3% paraformaldehyde, washed in PBS then incubated for 1 hour in the dark with the BODIPY solution, prepared in PBS. […]

[2] = system: Pre-adipocyte stem cells, bone marrow mesenchymal stem cells and fibroblasts; experiment: Assay 2 to measure adipogenesis (dexamethasone/insulin/indomethacin induction, Oil Red O or BODIPY staining); type: cell-based; settings: for adipogenic effect compared to KSEVSK 6-mer: assay 2 (FIG. 12); for Fold adipogenic induction vs. negative control / Specific activity (activity/1000 daltons): Assay 2
Description: The dexamethasone, insulin, and Oil Red 0 solutions were the same as described above for assay 1. Indomethacin Solution contained 10 mM indomethacin in methanol. The BODIPY 493/503 dye was used at a concentration of 4 μM.
Adipogenesis Maintenance Media was prepared as described above.
Adipogenesis Induction Media: To prepare 501 mL of Adipogenesis Induction Media, 50 μL of the 10 mM stock solution of dexamethasone, 500 μL of the 10 mg/ml stock solution of insulin, 5 ml of a 10 mM stock solution of indomethacin, and 5 mL of a 100× stock solution of penicillin and streptomycin were added to 490 mL of mesenchymal stem cell expansion media.
(§2) Pre-adipocyte stem cells, bone marrow mesenchymal stem cells and fibroblasts such as dermal reticular and papillary fibroblasts were propagated using standard tissue culture methods. Cells were trypsinized to remove cells from the substratum, the trypsin was neutralized, and cells were counted using a hemocytometer. Cells were resuspended at 60,000 cells/ml in low glucose DMEM containing 10% calf serum. 1 mL of cell suspension per well was plated in a 24-well plate, with several wells left empty for blank well staining.
Cells were incubated overnight and had reached confluency at this point. Approximately 1.8 ml of media was removed from each well and replaced with 2 ml Adipogenesis Induction Media. For negative control wells, expansion medium only was used at this step and for subsequent media changes. For all media changes, media was replaced as gently as possible to avoid disturbing the monolayer.
Cells were incubated for 3 days at 37° C., 5% CO2, media was replaced with fresh Adipogenesis Induction Media, and cells were incubated for an additional three days, at which point adipogenesis could be observed in about 5-10% of cells. Media was removed and replaced with 2 ml of maintenance medium containing either RHAMM antagonist peptides (experimental group) or insulin (concentration as in the induction medium used as positive control). Cells were incubated for 3 days at 37° C., 5% CO2.
Media was removed and BODIPY or Oil Red O staining was performed as described above for assay 1.

[3] = system: bone marrow mesenchymal stem cells; experiment: Adipogenesis in culture, assay 1 or 2 not specified; type: cell-based; settings: for adipogenic activity (in words): truncation fragments, FIGS. 7-9, 13; for activity compared to KSEVSK hexamer: FIG. 13, doses 1, 5, 25 μg, absorbance at 520 nm
From the text: The following assays were used to assess adipogenic activity of the peptides in the experiments described below in Example 2.
as §1, §2

Rat skin = experiment: Rat dermal skin model of adipogenesis (injection into the dermis); type: in vivo; settings: for adipogenic potential, In vivo Rat skin: ranked on a scale of 0-5 with 5 the highest possible score, injected into the dermis of aged rats
Description: (§3) Examples of the adipogenic effects of RHAMM antagonists (peptide B (SEQ ID NO: 2), peptide P15-1 (SEQ ID NO. 1), and the antibody to peptide B) are summarized in Table 1. Peptide P15-1, peptide B, and a RHAMM antibody were assayed for their effects on pre-adipocyte stem cells in culture and when injected into the dermis of aged rats. Reagents were ranked on a scale of 0-5 with 5 representing the highest possible score and a completely filled in Harvey ball. “2D” refers to two-dimensional tissue culture.
In FIGS. 5A and 5B, data are shown as a ratio of the area (“surface area”) of fat pads expressed as a ratio of experimental/control values.
The 6-mer (KSEVSK; SEQ ID NO: 3) was tested for adipogenic effect in rat skin in vivo. The results of this testing are shown in the photographs in FIG. 10.

[4] = system: Pre-adipocytes (rat mesenchymal stem cells); experiment: Adipogenic potential in 2D rat pre-adipocyte culture; type: cell-based; settings: ranked on a scale of 0-5 with 5 the highest possible score; two-dimensional tissue culture
Description: as §3

nude guinea pigs = experiment: Nude guinea pig model, injection in upper back and ear fat pad, H and E staining; type: in vivo; settings: upper back and ear fat pad after injection; control collagen gel vehicle only
Description: Peptide B (SEQ ID NO: 2) was also tested for its effect in nude guinea pigs since their skin structure resembles human facial skin. In particular, the skin of this animal model is more similar to human skin than is rat skin, in that it is hairless and the keratinocyte layer is thicker than in the rat model. […] Thus, peptide B was effective in promoting adipogenesis in this nude guinea pig model.

human Pre-adipocytes = experiment: Adipogenic potential in 2D human pre-adipocyte culture; type: cell-based; settings: ranked on a scale of 0-5 with 5 the highest possible score; two-dimensional tissue culture
Description: as §3

mesenchymal stem cell = experiment: Adipogenesis using a commercially available mesenchymal stem cell kit; type: cell-based

ASEVSK
adipogenic effect compared to KSEVSK 6-mer [1]: reduced adipogenic effects | adipogenic effect compared to KSEVSK 6-mer [2]: reduced adipogenic effects

KLKDENS
adipogenic activity (in words) [3]: Only the SQLKSEVSK (SEQ ID NO: 44) fragment was found to be adipogenic

KLKDENSQLKSEVSK [peptide B]
fat accumulation in rat dermal skin model (Rat skin; 25-50 μg/injection site): induced significant fat accumulation | fat pad surface area, experimental/control: animal group with best effect (Rat skin; FIGS. 5A and 5B): most effective in old females | adipogenic potential, In vivo Rat skin (Rat skin): 5 | adipogenic potential, 2D rat Pre-adipocytes (rat mesenchymal stem cells) [4]: 5 | subcutaneous fat deposition (nude guinea pigs): increase in subcutaneous fat deposition | Fold adipogenic induction vs. negative control [2]: 3.1 | Specific activity (activity/1000 daltons) [2]: 1.7 activity/1000 daltons | adipogenic potential, 2D human Pre-adipocytes (human Pre-adipocytes): 5 | amount at which maximum adipogenic effect was obtained ([3]; bone marrow mesenchymal stem cells, depending upon the screening assay used (FIGS. 3B, 3C, 4)): 1 to 5 µg

KSEVS
activity compared to KSEVSK hexamer [3]: much less active | adipogenic activity (in words) [3]: low level of adipogenic activity

KSEVSA
adipogenic effect compared to KSEVSK 6-mer [1]: reduced adipogenic effects | adipogenic effect compared to KSEVSK 6-mer [2]: reduced adipogenic effects

KSEVSK [6mer]
adipogenic effect in rat skin in vivo (fat pads) (Rat skin; FIG. 10): able to induce large fat pads, possibly larger than peptide B | Fold adipogenic induction vs. negative control [1]: 2.8 | Specific activity (activity/1000 daltons) [1]: 3.7 activity/1000 daltons | Fold adipogenic induction vs. negative control [2]: 4.2 | Specific activity (activity/1000 daltons) [2]: 5.6 activity/1000 daltons | adipogenic activity (in words) [3]: also found to be adipogenic

LKSEVSK [7mer]
Fold adipogenic induction vs. negative control [1]: 2 | Specific activity (activity/1000 daltons) [1]: 2.3 activity/1000 daltons | Fold adipogenic induction vs. negative control [2]: 3.0 | Specific activity (activity/1000 daltons) [2]: 3.4 activity/1000 daltons | adipogenic activity (in words) [3]: also found to be adipogenic

SEVSK
activity compared to KSEVSK hexamer [3]: much less active | adipogenic activity (in words) [3]: low level of adipogenic activity

SQLKSEVSK [9mer]
Fold adipogenic induction vs. negative control [1]: 2.4 | Specific activity (activity/1000 daltons) [1]: 2.1 activity/1000 daltons | Fold adipogenic induction vs. negative control [2]: 3.0 | Specific activity (activity/1000 daltons) [2]: 2.6 activity/1000 daltons | adipogenic activity (in words) [3]: found to be adipogenic

STMMSRSHK
adipogenic activity (in words) [3]: has adipogenic activity

STMMSRSHKTRSHHV [peptide P15-1]
adipogenic potential, In vivo Rat skin (Rat skin): 2 | adipogenic potential, 2D rat Pre-adipocytes (rat mesenchymal stem cells) [4]: 2 | adipogenic potential, 2D human Pre-adipocytes (human Pre-adipocytes): 2

B1: RHAMM carboxy-terminal sequence: RHAMM carboxy-terminal sequence aa681-794 produced as a recombinant protein (protein)
chain: LDAFEAEKQALLNEHGATQEQLNKIRDSYAQLLGHQNLKQKIKHVVKLKDENSQLKSEVSKLRSQLVKRKQNELRLQGELDKALGIRHFDPSKAFCHASKENFTPLKEGNPNCC
promotion of adipogenesis (mesenchymal stem cell): promoted adipogenesis
